# Results taken from ChEMBL document CHEMBL4350991, “Design, synthesis, and biological evaluation of rutacecarpine derivatives as multitarget-directed ligands for the treatment of Alzheimer's disease” (Eur J Med Chem, 2019).
# Assays:
# [1] = tested on: PC-12; test: cells; format: functional; settings: Rattus norvegicus
# [2] = tested on: PC-12; test: cells; format: functional; settings: Rattus norvegicus; remark: listed apart in the source
# [3] = tested on: PC-12; test: cells; format: functional; settings: Rattus norvegicus; remark: listed apart in the source
# [4] = tested on: PC-12; test: cells; format: functional; settings: Rattus norvegicus; remark: listed apart in the source
# [5] = target: Acetylcholinesterase (Electrophorus electricus, UniProt O42275); format: ADME
# Chain of Acetylcholinesterase (O42275 whole entry): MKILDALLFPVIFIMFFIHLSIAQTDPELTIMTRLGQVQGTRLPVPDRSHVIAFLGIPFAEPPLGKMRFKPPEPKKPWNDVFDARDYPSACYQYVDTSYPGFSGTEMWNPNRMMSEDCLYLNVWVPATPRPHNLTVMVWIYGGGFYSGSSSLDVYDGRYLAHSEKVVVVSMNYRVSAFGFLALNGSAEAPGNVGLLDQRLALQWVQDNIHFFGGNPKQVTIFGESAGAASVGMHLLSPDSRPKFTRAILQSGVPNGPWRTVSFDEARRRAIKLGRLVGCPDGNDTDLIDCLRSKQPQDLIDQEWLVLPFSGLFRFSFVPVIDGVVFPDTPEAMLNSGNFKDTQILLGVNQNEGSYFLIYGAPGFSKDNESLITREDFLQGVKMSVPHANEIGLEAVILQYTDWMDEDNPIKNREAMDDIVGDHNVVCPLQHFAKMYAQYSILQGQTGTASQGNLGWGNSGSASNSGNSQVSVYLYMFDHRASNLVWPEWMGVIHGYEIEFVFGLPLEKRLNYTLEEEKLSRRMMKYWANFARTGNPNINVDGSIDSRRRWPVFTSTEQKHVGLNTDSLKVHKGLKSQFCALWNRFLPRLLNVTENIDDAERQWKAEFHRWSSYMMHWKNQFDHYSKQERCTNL
# Description: Inhibition of electric eel AChE using acetylthiocholine iodide as substrate preincubated for 30 mins followed by substrate addition and measured after 30 mins by Ellman's method
# [6] = target: Cholinesterase (Equus caballus, UniProt P81908)
# Chain of Cholinesterase (P81908 whole entry): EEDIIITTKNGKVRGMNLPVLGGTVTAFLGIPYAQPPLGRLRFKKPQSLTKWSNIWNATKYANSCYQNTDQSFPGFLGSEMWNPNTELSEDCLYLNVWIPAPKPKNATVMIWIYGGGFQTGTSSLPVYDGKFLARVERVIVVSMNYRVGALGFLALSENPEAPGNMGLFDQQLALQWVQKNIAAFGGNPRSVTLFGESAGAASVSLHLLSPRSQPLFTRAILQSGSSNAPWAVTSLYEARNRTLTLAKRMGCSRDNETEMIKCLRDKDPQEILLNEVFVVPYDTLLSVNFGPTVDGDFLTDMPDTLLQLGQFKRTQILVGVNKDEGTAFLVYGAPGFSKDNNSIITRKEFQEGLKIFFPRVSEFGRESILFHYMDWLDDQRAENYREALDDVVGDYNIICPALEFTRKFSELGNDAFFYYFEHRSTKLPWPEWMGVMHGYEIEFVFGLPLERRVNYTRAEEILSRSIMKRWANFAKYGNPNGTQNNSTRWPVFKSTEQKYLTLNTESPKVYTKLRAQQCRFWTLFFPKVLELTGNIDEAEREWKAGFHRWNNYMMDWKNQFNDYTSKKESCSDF
# Description: Inhibition of equine serum BuChE using S-butyrylthiocholine iodide as substrate preincubated with enzyme for 30 mins followed by substrate addition and measured after 30 mins by Ellman's method
# [7] = tested on: PC-12; test: cells; format: functional; settings: Rattus norvegicus; remark: listed apart in the source
# [8] = n-Octanol-phosphate buffer partition co-efficient, log P of compound at pH 7.4 incubated for 48 hrs by UV spectrophotometry-based shake-flask method; format: physicochemical
# [9] = tested on: PC-12; test: Neuroprotective activity against H2O2 induced cytotoxicity in rat PC12 cells assessed as increase in cell viability pretreated for 3 hrs followed by H2O2 challenge measured after 24 hrs by MTT assay; format: functional, cell-based
Structure (SMILES),viability at 5 µM [1],viability at 30 µM [2],viability at 50 µM [3],viability at 10 µM [4],IC50 [5],IC50 [6],viability at 1 µM [7],logD at 48 h [8],Activity [9]
COc1ccc(S(=O)(=O)Nc2ccc3nc4n(c(=O)c3c2)CCc2c-4[nH]c3ccccc23)cc1OC,44%,47.7%,51%,45.2%,51.2 µM,10.9 µM,40.4%,–,–
O=c1c2cc(NS(=O)(=O)c3ccc(Br)s3)ccc2nc2n1CCc1c-2[nH]c2ccccc12,52.3%,56.2%,58.2%,55.1%,83.4 µM,60.3 µM,52%,2.91,Dose-dependent effect
O=c1c2cc(NS(=O)(=O)c3ccc(F)c(Cl)c3)ccc2nc2n1CCc1c-2[nH]c2ccccc12,50.8%,59.4%,61.1%,58.1%,85.6 µM,4.63 µM,48.1%,2.81,Dose-dependent effect
O=c1c2cc(NS(=O)(=O)c3ccc(F)cc3)ccc2nc2n1CCc1c-2[nH]c2ccccc12,44.7%,46.6%,51.8%,45.5%,> 100 µM,7.57 µM,41.9%,2.25,–
O=c1c2cc(NS(=O)(=O)c3ccc([N+](=O)[O-])cc3)ccc2nc2n1CCc1c-2[nH]c2ccccc12,33%,33.5%,31%,37.1%,> 100 µM,16.5 µM,32.4%,–,–
O=c1c2cc(NS(=O)(=O)c3cccc(C(F)(F)F)c3)ccc2nc2n1CCc1c-2[nH]c2ccccc12,50.7%,53.5%,55.9%,53.2%,> 100 µM,3.82 µM,49.1%,3.01,–
O=c1c2cc(NS(=O)(=O)c3cc(Cl)cc(Cl)c3)ccc2nc2n1CCc1c-2[nH]c2ccccc12,45.3%,59.6%,69.5%,47.9%,84.4 µM,7.94 µM,42.4%,3.21,Dose-dependent effect
O=c1c2cc(NS(=O)(=O)c3ccc(OC(F)(F)F)cc3)ccc2nc2n1CCc1c-2[nH]c2ccccc12,55.9%,61.8%,63.8%,60.1%,34.6 µM,3.95 µM,51.6%,3.62,Dose-dependent effect
O=c1c2cc(NS(=O)(=O)c3ccc(Br)cc3)ccc2nc2n1CCc1c-2[nH]c2ccccc12,41.8%,45.4%,47.6%,44.1%,40.4 µM,8.94 µM,39.9%,–,–
CC(=O)c1ccc(S(=O)(=O)Nc2ccc3nc4n(c(=O)c3c2)CCc2c-4[nH]c3ccccc23)cc1,48%,57.7%,59.8%,54.4%,> 100 µM,25.8 µM,46.7%,–,Dose-dependent effect
COc1cc2c(cc1OC)C(=O)C(CC1CCN(Cc3ccccc3)CC1)C2 (stereo unspecified) [DONEPEZIL],57.1%,68.9%,76.7%,65.5%,–,–,49.2%,–,–
O=c1c2cc(NS(=O)(=O)c3ccc(C(F)(F)F)cc3)ccc2nc2n1CCc1c-2[nH]c2ccccc12,54.9%,56.5%,60.1%,56.1%,> 100 µM,8.28 µM,43.6%,3.01,Dose-dependent effect
COc1ccc(S(=O)(=O)Nc2ccc3nc4n(c(=O)c3c2)CCc2c-4[nH]c3ccccc23)cc1,51.8%,43.2%,49%,42.3%,> 100 µM,8.01 µM,39.3%,–,–
O=c1c2cc(NS(=O)(=O)c3c(Cl)cccc3Cl)ccc2nc2n1CCc1c-2[nH]c2ccccc12,42.1%,45.4%,48.3%,42.9%,100 µM,13.7 µM,40.7%,–,–
O=c1c2cc(NS(=O)(=O)c3cccc([N+](=O)[O-])c3)ccc2nc2n1CCc1c-2[nH]c2ccccc12,38.7%,34%,25.6%,40.9%,> 100 µM,23.3 µM,27%,–,–
O=c1c2cc(NS(=O)(=O)c3cccs3)ccc2nc2n1CCc1c-2[nH]c2ccccc12,39.2%,41.9%,42.4%,40.8%,> 100 µM,> 100 µM,37.7%,–,–
COC(=O)c1sccc1S(=O)(=O)Nc1ccc2nc3n(c(=O)c2c1)CCc1c-3[nH]c2ccccc12,42.5%,39.8%,38%,39.9%,> 100 µM,> 100 µM,35.9%,–,–
O=c1c2cc(NS(=O)(=O)c3ccc(Cl)s3)ccc2nc2n1CCc1c-2[nH]c2ccccc12,48%,56%,54.5%,55.1%,> 100 µM,76.9 µM,43.5%,–,–
CC(C)(C)c1ccc(S(=O)(=O)Nc2ccc3nc4n(c(=O)c3c2)CCc2c-4[nH]c3ccccc23)cc1,39.9%,41.7%,43.6%,41.2%,> 100 µM,13 µM,37.6%,–,–
O=c1c(O)c(-c2ccc(O)c(O)c2)oc2cc(O)cc(O)c12 [QUERCETIN],56.3%,60.6%,62.7%,57.9%,–,–,48.9%,–,–
COc1ccc(S(=O)(=O)Nc2ccc3nc4n(c(=O)c3c2)CCc2c-4[nH]c3ccccc23)c(OC)c1,51.1%,56%,51.1%,52%,77 µM,7.58 µM,49.6%,–,–
